Series [1] deals with antinociception. The following applies: cited from earlier work.
Series [2] concerns the target μOR (spinal cord membranes from δOR−/− mice) (Mus musculus, UniProt P42866). Put plainly: [35S]GTPγS binding, spinal cord membranes from δOR−/− mice. The following applies: spinal cord membranes (10 μg), basal = 100%. It counts as biochemical.
Series [3] deals with spinal cord membranes from μOR−/− mice. Put plainly: [35S]GTPγS binding, spinal cord membranes from μOR−/− mice. In kind it is biochemical. (GTPγS is a poorly hydrolysed GTP analogue; its binding reports G protein activation.)
Series [4] addresses μOR (spinal cord membranes from WT mice) (Mus musculus, UniProt P42866). Put plainly: [35S]GTPγS binding, spinal cord membranes from WT mice. In kind it is biochemical. The settings on record: spinal cord membranes (10 μg); for Emax (% basal), [35S]GTPγS binding: basal = 100%.
Series [5] concerns the target μOR (membranes from the ileum of WT mice) (Mus musculus, UniProt P42866). Put plainly: [35S]GTPγS binding, ileal membranes from WT mice. In kind it is biochemical. The settings on record: 10 μM (Fig. 1G).
Series [6] deals with μOR-δOR heteromers (μ^βgalOR-δOR cells) (Homo sapiens, UniProt P35372+P41143).
The nature of series [7]: Chronic treatment, body weight. The settings on record: 10 mg/kg/day p.o. for 5 days.
For series [8], the target named is μOR homomers (μ^βgalOR cells) (Homo sapiens, UniProt P35372). It counts as cell-based.
Series [9] has as its system novel-environment stressed mice. The following applies: doses of 5–25 mg/kg; cited from earlier work.
For series [10], the system named is castor oil-induced diarrhea in δOR−/− mice. Put plainly: Castor oil-induced diarrhea in δOR−/− mice. It counts as in vivo. The following applies: for castor oil induced fecal output (fecal weight): 4 h; for castor oil-induced decrease in body weight: 5 or 10 mg/kg p.o., 4 h after castor oil.
For series [11], the system named is castor oil-induced diarrhea in WT mice. In kind it is in vivo. The following applies: for effect on body weight change in presence of naltrexone: WT and δOR−/− mice; for reduction in castor oil-induced diarrhea after naltrexone pre-treatment: 10 mg/kg p.o., naltrexone 10 mg/kg i.p. 20 min before; for castor oil-induced diarrhea (diarrhea score): 5 or 10 mg/kg p.o. 15 min before castor oil; for castor oil-induced diarrhea (diarrhea score) / castor oil induced fecal output (fecal weight): 4 h; for castor oil induced fecal output (fecal weight) / castor oil-induced decrease in body weight: 5 or 10 mg/kg p.o.

Data on four compounds can be found in publication PMC4769596 (Biochemical pharmacology, 2014).

Like-named read-outs stand apart in the source and are kept apart here.

Sequence of μOR (spinal cord membranes from WT mice) (P42866 whole entry): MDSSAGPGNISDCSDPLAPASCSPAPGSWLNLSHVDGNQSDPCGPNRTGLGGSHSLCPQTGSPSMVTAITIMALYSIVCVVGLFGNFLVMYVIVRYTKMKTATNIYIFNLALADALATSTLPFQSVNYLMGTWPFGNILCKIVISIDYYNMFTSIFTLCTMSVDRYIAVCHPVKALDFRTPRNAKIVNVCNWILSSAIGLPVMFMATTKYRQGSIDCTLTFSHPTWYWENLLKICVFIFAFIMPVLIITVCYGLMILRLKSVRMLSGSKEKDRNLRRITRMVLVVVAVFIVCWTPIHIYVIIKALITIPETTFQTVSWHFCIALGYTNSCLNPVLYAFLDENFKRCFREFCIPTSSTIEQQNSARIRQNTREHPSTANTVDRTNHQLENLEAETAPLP
Sequence of μOR-δOR heteromers (μ^βgalOR-δOR cells) (P35372 whole entry): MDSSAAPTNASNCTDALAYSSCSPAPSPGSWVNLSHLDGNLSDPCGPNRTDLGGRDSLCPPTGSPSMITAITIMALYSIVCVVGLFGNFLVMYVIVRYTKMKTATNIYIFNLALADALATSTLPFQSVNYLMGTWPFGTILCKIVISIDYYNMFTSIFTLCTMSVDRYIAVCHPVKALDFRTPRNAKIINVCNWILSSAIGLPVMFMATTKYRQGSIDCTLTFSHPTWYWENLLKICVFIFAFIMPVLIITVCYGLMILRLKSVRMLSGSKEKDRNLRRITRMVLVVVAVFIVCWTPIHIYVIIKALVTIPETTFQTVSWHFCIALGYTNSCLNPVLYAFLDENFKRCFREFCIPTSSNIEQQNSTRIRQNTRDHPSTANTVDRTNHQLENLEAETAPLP
Sequence of μOR-δOR heteromers (μ^βgalOR-δOR cells) (P41143 whole entry): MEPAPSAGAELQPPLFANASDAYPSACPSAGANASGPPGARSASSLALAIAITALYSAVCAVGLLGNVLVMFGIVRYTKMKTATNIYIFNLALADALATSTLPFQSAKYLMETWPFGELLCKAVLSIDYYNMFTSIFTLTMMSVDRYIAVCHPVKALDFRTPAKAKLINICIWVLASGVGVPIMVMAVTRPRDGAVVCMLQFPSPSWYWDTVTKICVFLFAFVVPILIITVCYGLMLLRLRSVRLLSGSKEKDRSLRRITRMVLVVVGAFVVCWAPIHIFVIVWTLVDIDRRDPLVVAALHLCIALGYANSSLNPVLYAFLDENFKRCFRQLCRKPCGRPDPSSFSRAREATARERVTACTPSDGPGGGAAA
Sequence of μOR (spinal cord membranes from δOR−/− mice) (P42866 whole entry): as the sequence (P42866 whole entry) above
Sequence of μOR homomers (μ^βgalOR cells) (P35372 whole entry): as the sequence (P35372 whole entry) above
Sequence of μOR (membranes from the ileum of WT mice) (P42866 whole entry): as the sequence (P42866 whole entry) above

In the case of `CN1CC[C@]23c4c5ccc(O)c4O[C@H]2[C@H](NC(=O)COCC(=O)NCCCCCCCNC(=O)COCC(=O)Nc2cccc4c6c([nH]c24)[C@@H]2Oc4c(O)ccc7c4[C@@]24CCN(CC2CC2)[C@@H](C7)[C@]4(O)C6)CC[C@@]3(O)[C@H]1C5` [MDAN21], the “antinociceptive potency compared to morphine” value in series [1] is given as 100 times.
For `C[C@@H](NC(=O)[C@@H](N)Cc1ccc(O)cc1)C(=O)NCC(=O)N(C)[C@@H](Cc1ccccc1)C(=O)NCCO` [DAMGO, [D-Ala^2, N-MePhe^4, Gly-ol]-enkephalin], the “Emax (% basal), [35S]GTPγS binding” value in series [2] is recorded as ~ 147 % basal; in series [4] it was ~ 143 % basal. In addition, in series [3], the “increase of [35S]GTPγS binding” value was “did not increase”.
With `COc1ccc(CN(C(=O)[C@@H](N)Cc2c(C)cc(C(N)=O)cc2C)[C@@H](C)c2ncc(-c3ccccc3)[nH]2)cc1C(=O)O` [eluxadoline], in [5], the “increase in [35S]GTPγS binding compared to DAMGO or loperamide” value is “higher increase”. Also, the results for the “Emax (% basal), [35S]GTPγS binding” value in series [2] and in series [4] were ~ 143 % basal and ~ 120 % basal, respectively. Further, the “block of β-arrestin recruitment by μOR-selective antibodies” value in series [6] was ~ 17%; in series [8], ~ 40%. For the same compound, the “block of β-arrestin recruitment by μOR-δOR heteromer-selective antibodies” value in series [6] was 27%. The “changes in body weight” value in series [7] is given as “did not lead to significant changes”. Besides, in series [3], the “increase of [35S]GTPγS binding” value is on record as “did not increase”. In series [4] (EC50, [35S]GTPγS binding), the EC50 was approximately 7 nM. For the same compound, the constipation entry in series [9] is listed as “did not cause constipation”. Besides, the “effect on castor oil-induced body weight change compared to WT mice” value in series [10] (5 mg/kg) is reported as “less effective”. Further, the “castor oil-induced diarrhea (diarrhea score)” value in series [10] (5 mg/kg p.o.) is “did not significantly reduce”; in series [10] (10 mg/kg p.o.), “partially eliminate”; in series [11] (WT mice), “reduced”. Moreover, the “castor oil induced fecal output (fecal weight)” value in [10] (5 mg/kg p.o.) is recorded as “significantly decreased”; in series [11] (WT mice), “significantly reduces”. Also, the “castor oil-induced decrease in body weight” value in series [10] is given as “blocked”; in [11] (WT mice, 4 h after castor oil), “blocked”. In series [11] (naltrexone 10 mg/kg i.p.), the “effect on body weight change in presence of naltrexone” value is “partly blocked”. For the same compound, in series [11] (WT mice, 5 mg/kg, 4 h after castor oil), the “fecal output versus vehicle control (constipation)” value is reported as “slightly reduced fecal output to below the vehicle control”. Also, in series [11] (WT mice), the “reduction in castor oil-induced diarrhea after naltrexone pre-treatment” value is “not observed”. Besides, in series [11] (WT mice, naltrexone 10 mg/kg i.p.), the “effect on fecal output with coadministration of naltrexone” value is recorded as “blocked”.
Regarding `CN(C)C(=O)C(CCN1CCC(O)(c2ccc(Cl)cc2)CC1)(c1ccccc1)c1ccccc1` [loperamide], in series [7], the “changes in body weight” value was “did not lead to significant changes”. Besides, in [3], the “increase of [35S]GTPγS binding” value is on record as “did not increase”. Further, the “castor oil-induced diarrhea (diarrhea score)” value in [10] (5 mg/kg p.o.) is listed as “did not significantly reduce”; in series [10] (10 mg/kg p.o.) it was “completely eliminate”; in series [11] (WT mice), “reduced”. Also, the “castor oil induced fecal output (fecal weight)” value in series [10] (5 mg/kg p.o.) is given as “significantly decreased”; in series [11] (WT mice), “significantly reduces”. Further, the “castor oil-induced decrease in body weight” value in series [10] is recorded as “blocked”; in series [11] (WT mice, 4 h after castor oil) it was “blocked”. Moreover, the “effect on body weight change in presence of naltrexone” value in series [11] (naltrexone 10 mg/kg i.p.) is “partly blocked”. In addition, the “reduction in castor oil-induced diarrhea after naltrexone pre-treatment” value in series [11] (WT mice) is given as “not observed”. In series [11] (mouse, in vivo), the “effect on fecal output with coadministration of naltrexone” value is on record as “blocked”.

Usually EC50 stands for the midpoint of the concentration-response curve.
